Like-named read-outs stand apart in the source and are kept apart here.
Legend:
[1] = system: LRRK2 at Ser935; assay: LRRK2 Ser935 phospho-immunoblot in wild-type MEFs; format: cell-based, mouse; conditions: MEFs, 2 h dose response
Method: (§1) Wild-type and homozygous LRRK2 [R1441C] […] All cells were grown at 37°C, 5% (by vol) CO2 in a humidified atmosphere and regularly tested for mycoplasma contamination.
(§2) Inhibitors were dissolved in dimethyl sulfoxide (DMSO) (Sigma, #D2650). The inhibitors were diluted 1000× into cell medium. The equivalent volume of DMSO was added to the minus inhibitor controls. Experiments were performed in six-well plates, 10 cm dishes or 15 cm dishes depending on the amount of cell extract required.
(§3) Lysates were incubated on ice for 30 min and clarified by centrifugation at 20 800×g at 4°C for 20 min. Supernatants were quantified by Bradford assay (Bio-Rad Protein Assay Dye Reagent Concentrate #5000006) and samples prepared in 1× lithium dodecyl sulfate sample buffer final concentration (NuPage LDS Sample buffer 4× Invitrogen, #NP0008). When not deployed immediately, lysates were snap-frozen in liquid nitrogen and stored at −80°C until use.
(§4) Cell extracts were mixed with a quarter of a volume of NuPage LDS Sample buffer 4× Invitrogen and heated at 95°C for 5 min. […] At the end of electrophoresis, proteins were electrophoretically transferred onto the nitrocellulose membrane (GE Healthcare, Amersham Protran Supported 0.45 µm NC) at 100 V for 90 min on ice in the transfer buffer (48 mM Tris–HCl and 39 mM glycine supplemented with 20% methanol). Transferred membrane was blocked with 5% (w/v) skim milk powder dissolved in TBS-T [20 mM Tris–HCl, pH 7.5, 150 mM NaCl and 0.1% (v/v) Tween 20] at room temperature for 1 h. The membrane was typically cropped into three pieces, namely the ‘top piece’ (from the top of the membrane to 75 kDa), the ‘middle piece’ (between 75 and 30 kDa) and the ‘bottom piece’ (from 30 kDa to the bottom of the membrane). All primary antibodies were used at 1 μg/ml final concentration and incubated in TBS-T containing 5% (by mass) bovine serum albumin with exception of α-tubulin and GAPDH antibodies that were diluted 1 : 5000 and 1 : 2000, respectively. The top piece was incubated with the indicated rabbit anti-LRRK2 phosphorylation site antibody multiplexed with mouse anti-LRRK2 C-terminus total antibody. The middle piece was incubated with mouse anti-GAPDH or anti-α-tubulin antibody. The bottom pieces were incubated with indicated total and phospho-Rab antibodies. Membranes were incubated in primary antibody overnight at 4°C. Prior to secondary antibody incubation, membranes were washed three times with TBS-T for 10 min each. […] Membranes were washed with TBS-T for three times with a 10 min incubation for each wash. Protein bands were acquired via near infrared fluorescent detection using the Odyssey CLx imaging system and quantified using the Image Studio software.

[2] = system: Rab10 phosphorylation, LRRK2[A2016T]; assay: Rab10 Thr73 phospho-immunoblot in inhibitor resistant LRRK2[A2016T] knock-in MEFs; format: cell-based, mouse; conditions: 2 h, up to 3 µM
Method: (§5) Wild-type and homozygous LRRK2 [R1441C] (Jax, stock number: 009346), LRRK2[G2019S] Taconic, (model 13940) and LRRK2 [A2016T] (Jax, stock number: 021828)[7] knock-in MEF cells were isolated from littermate-matched mouse embryos on a C57BL/6J background at day E12.5 as described previously. MEFs were grown in Dulbecco's modified Eagle medium (DMEM GIBCO, #11960-085) containing 10% (by vol) fetal bovine serum (FBS), 2 mM L-glutamine, 100 U/ml penicillin, and […] streptomycin supplemented with non-essential amino acids and 1 mM sodium pyruvate. Human embryonic kidney 293 (HEK293) (#ATCC CRL-1573) and HeLa (#ATCC CCL-2) cells were purchased from American Tissue Culture Collection (ATCC) and cultured in DMEM containing 10% (by vol) FBS, 2 mM L-glutamine, 100 U/ml penicillin, and […] streptomycin. All cells were grown at 37°C, 5% (by vol) CO2 in a humidified atmosphere and regularly tested for mycoplasma contamination.
as §2
(§6) Cells were lysed in an ice-cold lysis buffer containing 50 mM Tris–HCl, pH 7.4, 1% (by vol) Triton X-100, 10% (by vol) glycerol, 150 mM NaCl, 1 mM sodium orthovanadate, 50 mM NaF, 10 mM 2-glycerophosphate, 5 mM sodium pyrophosphate, 1 µg/ml microcystin-LR, and cOmplete EDTA-free protease inhibitor cocktail (Roche, #11836170001). Lysates were incubated on ice for 30 min and clarified by centrifugation at 20 800×g at 4°C for 20 min. Supernatants were quantified by Bradford assay (Bio-Rad Protein Assay Dye Reagent Concentrate #5000006) and samples prepared in 1× lithium dodecyl sulfate sample buffer final concentration (NuPage LDS Sample buffer 4× Invitrogen, #NP0008). When not deployed immediately, lysates were snap-frozen in liquid nitrogen and stored at −80°C until use. […]

[3] = system: LRRK2 mediated phosphorylation of Rab10 at Thr73; assay: Rab10 Thr73 phospho-immunoblot in wild-type MEFs; format: cell-based, mouse; conditions: Mus musculus, 2 h
Method: as §1, §2, §3, §4

[4] = system: Dundee panel of 140 protein kinases; assay: Kinase profiling; format: biochemical
Excerpt: […] Results for each kinase are presented as the mean kinase activity ±S.D. for an assay undertaken in duplicate relative to a control kinase assay in which the inhibitor was omitted. Abbreviations and assay conditions used for each kinase are available (http://www.kinase-screen.mrc.ac.uk/services/premier-screen).

[5] = system: mouse embryonic fibroblast cells (MEFs); assay: Cell morphology and attachment of MEFs; format: cell-based
[6] = system: Rab10 pThr73, LRRK2 [G2019S]; assay: Rab10 Thr73 phospho-immunoblot in LRRK2[G2019S] knock-in MEFs; format: cell-based, mouse; conditions: Mus musculus, 2 h, read-out: LRRK2 [G2019S] Rab10 pThr73 IC50
Method: as §5, §2, §6

[7] = system: Rab10 pThr73, LRRK2 [R1441C]; assay: Rab10 Thr73 phospho-immunoblot in LRRK2[R1441C] knock-in MEFs; format: cell-based, mouse; conditions: Mus musculus, 2 h, read-out: LRRK2 [R1441C] Rab10 pThr73 IC50
Method: as §5, §2, §6

[8] = system: LRRK2 Ser935 phosphorylation, LRRK2[R1441C]; assay: LRRK2 Ser935 phospho-immunoblot in LRRK2[R1441C] knock-in MEFs; format: cell-based, mouse; conditions: dose and time dependent
Method: as §5, §2
Cells were lysed in an ice-cold lysis buffer containing 50 mM Tris–HCl, pH 7.4, 1% (by vol) Triton X-100, 10% (by vol) glycerol, 150 mM NaCl, 1 mM sodium orthovanadate, 50 mM NaF, 10 mM 2-glycerophosphate, 5 mM sodium pyrophosphate, 1 µg/ml microcystin-LR, and cOmplete EDTA-free protease inhibitor cocktail (Roche, #11836170001). Lysates were incubated on ice for 30 min and clarified by centrifugation at 20 800×g at 4°C for 20 min. Supernatants were quantified by Bradford assay (Bio-Rad Protein Assay Dye Reagent Concentrate #5000006) and samples prepared in 1× lithium dodecyl sulfate sample buffer final concentration (NuPage LDS Sample buffer 4× Invitrogen, #NP0008). When not deployed immediately, lysates were snap-frozen in liquid nitrogen and stored at −80°C until use.
Cell extracts were mixed with a quarter of a volume of NuPage LDS Sample buffer 4× Invitrogen and heated at 95°C for 5 min. […] At the end of electrophoresis, proteins were electrophoretically transferred onto the nitrocellulose membrane (GE Healthcare, Amersham Protran Supported 0.45 µm NC) at 100 V for 90 min on ice in the transfer buffer (48 mM Tris–HCl and 39 mM glycine supplemented with 20% methanol). Transferred membrane was blocked with 5% (w/v) skim milk powder dissolved in TBS-T [20 mM Tris–HCl, pH 7.5, 150 mM NaCl and 0.1% (v/v) Tween 20] at room temperature for 1 h. […]

SMILES | effect on LRRK2 Ser935 phosphorylation [1] | effect of A2016T mutation on inhibition of Rab10 phosphorylation [2] | inhibition at 10 µM ([3]; wild-type MEFs, 10 μM) [%] | number of the 140 kinases assayed suppressed by over 80% ([4]; 0.1 μM inhibitor) | number of the 140 kinases assayed suppressed by over 80% ([4]; 1 μM inhibitor) | concentration that impacted cell morphology and attachment [5] | IC50 [6] [nM] | IC50 [7] [nM] | effect on Ser935 phosphorylation in LRRK2[R1441C] knock-in cells [8] | IC50 ([3]; read-out: LRRK2 WT Rab10 pThr73 IC50, wild type MEFs littermate matched to LRRK2[G2019S], 2 h, panel (B)) [nM] | IC50 ([3]; read-out: LRRK2 WT Rab10 pThr73 IC50, wild type MEFs littermate matched to LRRK2[R1441C], 2 h, panel (A)) [nM]
C[C@@H]1CN(c2cc(-c3n[nH]c4ccc(OC5(C)CC5)cc34)ncn2)C[C@H](C)O1 [MLi-2] | complete dephosphorylation | markedly suppressed inhibition of Rab10 phosphorylation |  |  |  |  |  |  |  |  | 
Cc1ccc(C(=O)Nc2ccc(CN3CCN(C)CC3)c(C(F)(F)F)c2)cc1C#Cc1cnc2cccnn12 [Ponatinib] | without affecting Ser935 phosphorylation |  | ~50 | 14 | 20 | above 10 μM |  |  |  |  | 
CNC(=O)c1cc(Oc2ccc(NC(=O)Nc3cc(C(C)(C)C)nn3-c3ccc4ncccc4c3)c(F)c2)ccn1 [Rebastinib] | did not induce dephosphorylation of Ser935 | markedly blocked |  |  | 18 |  | 1070 | 1310 | rescue Ser935 phosphorylation | 478 | 539
